Among the data in PubChem BioAssay (NCI) are GI50 and TGI values, retold here.

“And” between values parts separate entries of the source, which are not always exact repeats. Equal values may be shown once.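 96-well plates; 48 h exposure; 5 concentrations. Endpoints by linear interpolation between flanking doses. Not reached: highest tested concentration assigned. Abbreviation: GI50, concentration required for 50% inhibition of growth. TGI marks complete inhibition of growth.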

The subject of the first experiment is LOX IMVI melanoma. Description: NCI anticancer screen, dose series, 48 h.
In the case of `COC(=O)c1cc2c3ccccc3[nH]c2c2ncccc12`, the GI50 was 9.46 µM and the TGI was above 100 µM.
For `CNC(=O)OCc1c(COC(=O)NC)c(-c2ccc(Cl)c(Cl)c2)n2c1SCC2`, the TGI came out at 25.5 µM.
With `COc1cc(OC)cc(-c2ccc(-c3ccc(C(=N)N)o3)o2)c1`, the GI50 was 1.79 µM and the TGI turned out to be 3.29 µM.
For `C[C@]12CC[C@H](O)CC1=CC[C@@H]1[C@@H]2CC[C@]2(C)C(c3cccnc3)=CC[C@@H]12`, in that order: above 100 µM and above 100 µM.
On the same counts, the results for `Cc1ccc2c(c1)C(=O)/C(=C/c1ncc([N+](=O)[O-])n1C)O2` are 0.404 µM and 1.23 µM.
On the same counts, the results for `O=C(NCCOCCOCCNc1cccc2c1C(=O)N(C1CCCNC1=O)C2=O)c1cc2c(o1)C(=O)c1ccccc1C2=O` (stereo not given) are 1.17 µM and 3 µM.
Take `O=C(CN1CCOCC1)Nc1ccc(Cn2nnc3c2C(=O)c2nnn(Cc4ccc(NC(=O)CN5CCOCC5)cc4)c2C3=O)cc1`: the GI50 was 0.275 µM and the TGI amounted to 1.35 µM.
Take `O=C(c1ccco1)c1nc2ccc(C(F)(F)F)cc2[n+]([O-])c1C(F)(F)F`: the GI50 was above 100 µM and the TGI is above 100 µM.
Regarding `C=C(CN1CCc2ccccc2C1)c1ccc(C(=O)Nc2cnccn2)cc1`, the GI50 was 9.18 µM and the TGI was above 100 µM.
On the same counts, the results for `CCCCC/C(C=C(C#N)C#N)=C/c1ccccc1` are 2.17 µM and 5.47 µM.
Consider `CC1CCC2(C(=O)O)CCC3(C)C(=CCC4C5(C)CC(O)C(O)C(C)(CO)C5C(O)CC43C)C2C1C` (stereo not given), for which the TGI stood at 42.3 µM.
Regarding `Cc1ccc(S(=O)(=O)N(CCOc2ccc(/C(N)=N/Cl)cc2)CCOc2ccc(/C(N)=N\Cl)cc2)cc1`, the GI50 was 16.7 µM and the TGI is above 100 µM.
On the same counts, the results for `COc1ccc(C2=NN(C(=O)c3cc(OC)c(OC)c(OC)c3)C(c3ccc(C#N)cc3)C2)cc1OC` (stereo not given) are 2.24 µM and 16.3 µM.
On the same counts, the results for `CCOc1cccc(/C=N/NC(=O)c2ccccc2Nc2ccnc(C(F)(F)F)c2)c1O` are 0.241 µM and above 100 µM.
On the same counts, the results for `CSc1cc(N=Nc2nc3ccccc3s2)c2ccccc2c1O` are 5.97 µM and 12.7 µM.
Take `CCOC(=O)/C=C(/C(=O)OCC)n1cc(Cl)c(=O)n(CC(=O)OCC)c1=O`: the GI50 is 15.2 µM; the TGI was 8.17 µM and 34.5 µM.
Turning to `CC1=C(C(=O)Nc2ccc3[nH]ncc3c2)C(c2ccc3ccccc3c2)CC(=O)N1` (stereo not given), the GI50 was 13.2 µM and the TGI is above 25 µM.
Compound `O=C1NNC=Nc2ccc(cc2)S(=O)(=O)c2ccc(cc2)N=CNNC1=O` gave a TGI above 100 µM.
Take `CC1OC(O[C@H]2C[C@@H](O)[C@]3(CO)[C@H]4[C@H](O)C[C@]5(C)[C@@H](C6=CC(=O)OC6)CC[C@]5(O)[C@@H]4CC[C@]3(O)C2)C(O)C(O)C1O` (stereo not given in full): the GI50 is 19 µM and the TGI was 34 µM.

A further experiment deals with OVCAR-8 ovarian. Nature of the experiment: NCI anticancer screen, dose series, 48 h.
As to `COC(=O)c1cc2c3ccccc3[nH]c2c2ncccc12`, the GI50 was 61.2 µM and the TGI is above 100 µM.
In turn, `CNC(=O)OCc1c(COC(=O)NC)c(-c2ccc(Cl)c(Cl)c2)n2c1SCC2` showed a TGI of 39.8 µM.
As for `COc1cc(OC)cc(-c2ccc(-c3ccc(C(=N)N)o3)o2)c1`, the GI50 is 3.75 µM and the TGI was found to be 14 µM.
On the same counts, the results for `C[C@]12CC[C@H](O)CC1=CC[C@@H]1[C@@H]2CC[C@]2(C)C(c3cccnc3)=CC[C@@H]12` are 29.5 µM and above 100 µM.
For `Cc1ccc2c(c1)C(=O)/C(=C/c1ncc([N+](=O)[O-])n1C)O2`, in that order: 0.481 µM and 7 µM.
On the same counts, the results for `O=C(NCCOCCOCCNc1cccc2c1C(=O)N(C1CCCNC1=O)C2=O)c1cc2c(o1)C(=O)c1ccccc1C2=O` (stereo not given) are 2.31 µM and 10.6 µM.
On to `O=C(CN1CCOCC1)Nc1ccc(Cn2nnc3c2C(=O)c2nnn(Cc4ccc(NC(=O)CN5CCOCC5)cc4)c2C3=O)cc1`, for which the GI50 is 0.358 µM and the TGI was 1.33 µM.
For `O=C(c1ccco1)c1nc2ccc(C(F)(F)F)cc2[n+]([O-])c1C(F)(F)F`, in that order: 50 µM and above 100 µM.
On the same counts, the results for `C=C(CN1CCc2ccccc2C1)c1ccc(C(=O)Nc2cnccn2)cc1` are 30.2 µM and above 100 µM.
For `CCCCC/C(C=C(C#N)C#N)=C/c1ccccc1`, in that order: 3.34 µM and above 100 µM.
`CC1CCC2(C(=O)O)CCC3(C)C(=CCC4C5(C)CC(O)C(O)C(C)(CO)C5C(O)CC43C)C2C1C` (stereo not given) came in with a TGI of 42.6 µM.
`Cc1ccc(S(=O)(=O)N(CCOc2ccc(/C(N)=N/Cl)cc2)CCOc2ccc(/C(N)=N\Cl)cc2)cc1`: the GI50 was 12 µM and the TGI was above 100 µM.
On the same counts, the results for `COc1ccc(C2=NN(C(=O)c3cc(OC)c(OC)c(OC)c3)C(c3ccc(C#N)cc3)C2)cc1OC` (stereo not given) are 3.26 µM and above 42.7 µM.
On the same counts, the results for `CCOc1cccc(/C=N/NC(=O)c2ccccc2Nc2ccnc(C(F)(F)F)c2)c1O` are 0.449 µM and above 100 µM.
As for `CSc1cc(N=Nc2nc3ccccc3s2)c2ccccc2c1O`, the GI50 is 13.6 µM and the TGI was found to be 39 µM.
`CCOC(=O)/C=C(/C(=O)OCC)n1cc(Cl)c(=O)n(CC(=O)OCC)c1=O`: the GI50 was 12.6 µM; the TGI is 8.43 µM and 28.4 µM.
Take `CC1=C(C(=O)Nc2ccc3[nH]ncc3c2)C(c2ccc3ccccc3c2)CC(=O)N1` (stereo not given): the GI50 was above 25 µM and the TGI is above 25 µM.
The compound `O=C1NNC=Nc2ccc(cc2)S(=O)(=O)c2ccc(cc2)N=CNNC1=O` had a TGI above 100 µM.
With `CC1OC(O[C@H]2C[C@@H](O)[C@]3(CO)[C@H]4[C@H](O)C[C@]5(C)[C@@H](C6=CC(=O)OC6)CC[C@]5(O)[C@@H]4CC[C@]3(O)C2)C(O)C(O)C1O` (stereo not given in full), the GI50 was 19.2 µM and the TGI is 34.8 µM.
